From ChEMBL document CHEMBL1126241, “Synthesis, characterization, and Ca2+ antagonistic activity of diltiazem metabolites” (J Med Chem, 1992)

System: Cricetinae gen. sp.
Test: Concentration (10 e-6 M) required to block [Ca2+]-induced contraction of K+-depolarized hamster aorta
Format: functional

SMILES	IC50 [µM]
CC(=O)OC1C(=O)N(CCN(C)C)c2ccccc2SC1c1ccc(O)cc1 (configuration not stated)	40.4
CN(C)CCN1C(=O)C(O)C(c2ccc(O)cc2)Sc2ccccc21 (configuration not stated)	45.5
CNCCN1C(=O)C(OC(C)=O)C(c2ccc(OC)cc2)Sc2ccccc21 (configuration not stated)	3.27
CNCCN1C(=O)C(O)C(c2ccc(O)cc2)Sc2ccccc21 (configuration not stated)	127
CNCCN1C(=O)C(O)C(c2ccc(OC)cc2)Sc2ccccc21 (configuration not stated)	20.2
CNCCN1C(=O)C(OC(C)=O)C(c2ccc(O)cc2)Sc2ccccc21 (configuration not stated)	112
COc1ccc([C@@H]2Sc3ccccc3N(CCN(C)C)C(=O)[C@@H]2OC(C)=O)cc1 [DILTIAZEM]	0.98
